Assays:
rice blast = test: microbe, parasite or virus in culture; type: cell-based; conditions: Pyricularia oryzae; for inhibition at 25 ppm: read-out: inhibition rate against rice blast, 25 ppm, in vitro; for inhibition at 8.3 ppm: read-out: inhibition rate against rice blast, 8.3 ppm, in vitro
cucumber gray mold = test: fungicidal activity in vitro (inhibition rate) against cucumber gray mold; type: cell-based; conditions: 25 ppm, in vitro; read-out: inhibition rate against cucumber gray mold
Diamond back moth = test: insecticidal activity against diamond back moth, airbrush spray; type: in vivo; conditions: 72 h; for pest or weed control at 600 µg/mL: 600 mg/L; for pest or weed control at 10 µg/mL: 10 mg/L; for pest or weed control at 100 µg/mL: 100 mg/L
Outline: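 Airbrush leaf-disc spray test: both faces of 2 cm cabbage discs received 0.5 ml of test solution at 0.7 kg/cm^2. Solutions were made in acetone:methanol (1:1) and brought to concentration with 0.1% Tween 80 in water. Ten second-instar larvae per disc, triplicates, were held at 25° C and 60˜70% R.H., with mortality recorded at 72 hrs.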

armyworm = test: bioactivity test against armyworm, airbrush spray; type: in vivo; conditions: 72 h, read-out: Insecticidal activity against armyworm (%); for pest or weed control at 600 µg/mL: 600 mg/L; for pest or weed control at 10 µg/mL: 10 mg/L; for pest or weed control at 100 µg/mL: 100 mg/L
[1] = tested on: Green peach aphids (Myzus Persicae Sulzer); test: bioactivity test against green peach aphid, airbrush foliar spray; type: in vivo; conditions: Myzus persicae, foliar, 48 h, contrastive test, read-out: Insecticidal activity against peach aphid (%); for pest or weed control at 2.5 µg/mL: 2.5 mg/L; for pest or weed control at 5 µg/mL: 5 mg/L; for pest or weed control at 10 µg/mL: 10 mg/L; for pest or weed control at 100 µg/mL: 100 mg/L; for pest or weed control at 600 µg/mL: 600 mg/L
Outline: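 Aphids (15-30 per cabbage leaf disc) on moist filter paper were airbrush-sprayed at 10 psi, 0.5 mL, with compound from acetone:methanol (1:1) diluted in water with 0.1% tween 80. Held at 25±1 C, 60±5% RH; survivors counted after 48 hrs to give death rates.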

carmine spider mite = test: bioactivity test against carmine spider mite, airbrush spray; type: in vivo; conditions: Tetranychus cinnabarinus, 72 h, contrastive test, read-out: Insecticidal activity against carmine spider mite (% ); for pest or weed control at 600 µg/mL: 600 mg/L; for pest or weed control at 10 µg/mL: 10 mg/L; for pest or weed control at 100 µg/mL: 100 mg/L
Outline: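 Broadbean seedlings infested with adult mites were sprayed with compound (acetone/methanol stock diluted in 0.1% Tween 80 water) by airbrush at 0.7 kg/cm^2, 0.5 ml. Three replicates were run. Mortality was scored after 72 hrs.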

corn rust = test: protectant activity in vivo against corn rust; conditions: Zea mays, 168 h, protectant activity; for pest or weed control at 100 µg/mL: read-out: control effect against corn rust (%), 100 mg/L; for pest or weed control at 400 µg/mL: read-out: control effect against corn rust (%), 400 mg/L; for pest or weed control at 6.25 µg/mL: read-out: control effect against corn rust (%), 6.25 mg/L; for pest or weed control at 25 µg/mL: read-out: control effect against corn rust (%), 25 mg/L
wheat powdery mildew = test: protectant activity in vivo against wheat powdery mildew; conditions: Triticum aestivum, 168 h, protectant activity; for pest or weed control at 100 µg/mL: read-out: control effect against wheat powdery mildew (%), 100 mg/L; for pest or weed control at 400 µg/mL: read-out: control effect against wheat powdery mildew (%), 400 mg/L; for pest or weed control at 6.25 µg/mL: read-out: control effect against wheat powdery mildew (%), 6.25 mg/L; for pest or weed control at 25 µg/mL: read-out: control effect against wheat powdery mildew (%), 25 mg/L
cucumber downy mildew = test: protectant activity in vivo against cucumber downy mildew; conditions: Cucumis sativus, 168 h, protectant activity; for pest or weed control at 25 µg/mL: read-out: control effect against cucumber downy mildew (%), 25 mg/L; for pest or weed control at 50 µg/mL: read-out: control effect against cucumber downy mildew (%), 50 mg/L; for pest or weed control at 100 µg/mL: read-out: control effect against cucumber downy mildew (%), 100 mg/L; for pest or weed control at 400 µg/mL: read-out: control effect against cucumber downy mildew (%), 400 mg/L

Compound | inhibition at 25 ppm (rice blast) [%] | inhibition at 25 ppm (cucumber gray mold) [%] | pest or weed control at 600 µg/mL (Diamond back moth) [%] | pest or weed control at 600 µg/mL (armyworm) [%] | pest or weed control at 10 µg/mL [1] [%] | pest or weed control at 100 µg/mL [1] [%] | pest or weed control at 600 µg/mL [1] [%] | pest or weed control at 600 µg/mL (carmine spider mite) [%] | pest or weed control at 100 µg/mL (corn rust) [%] | pest or weed control at 400 µg/mL (corn rust) [%] | pest or weed control at 100 µg/mL (wheat powdery mildew) [%] | pest or weed control at 400 µg/mL (wheat powdery mildew) [%] | pest or weed control at 10 µg/mL (Diamond back moth) [%] | pest or weed control at 100 µg/mL (Diamond back moth) [%] | pest or weed control at 6.25 µg/mL (corn rust) [%] | pest or weed control at 25 µg/mL (corn rust) [%] | pest or weed control at 6.25 µg/mL (wheat powdery mildew) [%] | pest or weed control at 25 µg/mL (wheat powdery mildew) [%] | pest or weed control at 25 µg/mL (cucumber downy mildew) [%] | pest or weed control at 400 µg/mL (cucumber downy mildew) [%] | other results
CC(Cl)c1ncnc(NCCc2ccc(O)cc2)c1Cl (stereo not shown) [CK4, reference compound] | < 50 | 0 | 0 | 40 | 64 | 100 | 100 | 75 | 0 | 0 | 0 | 40 |  |  |  |  |  |  |  |  | pest or weed control at 2.5 µg/mL [1]: 0%; pest or weed control at 5 µg/mL [1]: 41%
CCc1ncnc(OCCc2ccc(Oc3ccccc3)cc2)c1Cl [CK13, reference compound] | 0 | 0 | 67 | 86 | 83 | 98 | 100 | 100 | 0 | 100 | 0 | 40 | 0 | 16 | 0 | 0 | 0 | 0 | 0 | 85 | pest or weed control at 10 µg/mL (armyworm): 0%; pest or weed control at 100 µg/mL (armyworm): 0%; pest or weed control at 5 µg/mL [1]: 0%; pest or weed control at 10 µg/mL (carmine spider mite): 0%; pest or weed control at 100 µg/mL (carmine spider mite): 0%; pest or weed control at 50 µg/mL (cucumber downy mildew): 0%; pest or weed control at 100 µg/mL (cucumber downy mildew): 25%
CCc1ncnc(OCCc2ccc(OCc3ccccc3)cc2)c1Cl [CK14, reference compound] |  | 0 | 67 | 0 | 0 | 70 | 100 | 100 | 20 | 100 | 10 | 85 | 0 | 10 | 0 | 0 | 0 | 0 | 0 | 98 | inhibition at 8.3 ppm (rice blast): 0%; pest or weed control at 10 µg/mL (carmine spider mite): 6%; pest or weed control at 100 µg/mL (carmine spider mite): 33%; pest or weed control at 50 µg/mL (cucumber downy mildew): 0%; pest or weed control at 100 µg/mL (cucumber downy mildew): 40%
CCc1ncnc(OC(CC)c2ccc(Oc3ccc(C(F)(F)F)cn3)cc2)c1Cl (stereo not shown) [CK15, reference compound] | 0 | 0 | 17 | 0 | 0 | 40 | 69 | 59 | 85 | 95 | 85 | 95 | 0 | 15 | 0 | 30 | 0 | 10 | 0 | 95 | pest or weed control at 10 µg/mL (carmine spider mite): 0%; pest or weed control at 100 µg/mL (carmine spider mite): 0%; pest or weed control at 50 µg/mL (cucumber downy mildew): 0%; pest or weed control at 100 µg/mL (cucumber downy mildew): 15%
Cc1ncnc(NC(C)c2cccc3ccccc23)c1Cl (stereo not shown) [CK17, reference compound] |  | 0 | 0 | 0 |  |  | 0 | 40 | 0 | 100 | 75 | 100 |  |  | 0 | 0 | 50 | 70 | 0 | 100 | inhibition at 2.8 ppm (rice blast; read-out: inhibition rate against rice blast, 2.8 ppm, in vitro): 0%; inhibition at 8.3 ppm (rice blast): 50%; pest or weed control at 50 µg/mL (cucumber downy mildew): 10%; pest or weed control at 100 µg/mL (cucumber downy mildew): 40%
CC(Cl)c1ncnc(NCCc2ccc(Oc3ccc(C(F)(F)F)cc3)cc2)c1Cl (stereo not shown) [CK20, reference compound] | < 50 | < 50 | 57 |  |  |  |  | 100 | 70 | 100 | 30 | 100 |  |  | 0 | 0 | 0 | 0 | 0 | 100 | pest or weed control at 10 µg/mL (armyworm): 0%; pest or weed control at 100 µg/mL (carmine spider mite): 72%; pest or weed control at 50 µg/mL (cucumber downy mildew): 0%; pest or weed control at 100 µg/mL (cucumber downy mildew): 10%
CC(Cl)c1ncnc(NCCc2ccc(Oc3ncc(C(F)(F)F)cc3Cl)cc2)c1Cl (stereo not shown) [CK21, reference compound] | 0 | < 50 | 80 | 0 | 35 | 98 | 100 | 0 |  | 85 |  | 0 | 10 | 25 |  |  |  |  |  |  | pest or weed control at 2.5 µg/mL [1]: 0%; pest or weed control at 5 µg/mL [1]: 19%
Cc1ncnc(NCc2ccc(Oc3nc(Cl)c(Cl)cc3Cl)cc2)c1Cl [CK33, reference compound] | < 50 | 0 | 29 | 100 |  |  | 0 | 41 |  | 0 |  | 0 |  |  |  |  |  |  |  | 0 | pest or weed control at 10 µg/mL (armyworm): 0%; pest or weed control at 100 µg/mL (armyworm): 0%
CC(Cl)c1ncnc(NCCc2ccc(Oc3ncc(Cl)cc3Cl)cc2)c1Cl (stereo not shown) [CK45, reference compound] | 0 | < 50 | 86 | 0 | 55 | 98 | 100 | 0 |  | 80 |  | 0 | 0 | 12 |  |  |  |  |  |  | pest or weed control at 1.25 µg/mL ([1]; 1.25 mg/L): 0%; pest or weed control at 2.5 µg/mL [1]: 26%; pest or weed control at 5 µg/mL [1]: 39%

— patent US9770026B2, “Substituted pyrimidine compound and uses thereof” (Shenyang Sinochem Agrochemicals R&D Co., Ltd., priority 2012, dated 2017)
